Measured values taken from patent US20180155757A1, “IDENTIFICATION OF BACTERIA THAT ARE RESISTANT TO CARBAPENEMS BY MEMBRANE IMPERVIOUSNESS” (BIOMÉRIEUX, priority 2015, published 2018).
Like-named read-outs stand apart in the source and are kept apart here.

Assays:
Experiment in all cases: Etest MIC of indicator carbapenems on MH II agar without/with PMBN
Assay type in all cases: cell-based
[1] = tested on: K. pneumoniae KP 63 (porin−); conditions: Klebsiella pneumoniae
Method: (§1) The determinations of antibiotic MIC were carried out on solid culture media with the Etest® method. To do this, Etest® strips (bioMérieux, France) were used: • Etest® Imipenem IM 32, and • Etest® Ertapenem ETP 32, and also solid culture media, differing from one another by virtue of their non-inhibitory concentrations of PMBN.
(§2) These solid culture media are prepared in Petri dishes (0=145 mm; V=50 ml) on a base of MH II Agar (Becton Dickinson®, United States), more or less supplemented with PMBN. The PMBN concentrations range from 0 up to concentrations equivalent to one fifth of the MIC of PMBN (⅕ MICPMBN).
(§3) Using a swab and the Retro C80™ rota-plater (bioMérieux, France), the culture media were inoculated with the bacteria, originating from an inoculum of 0.5 McFarland, prepared in 0.85% NaCl solution from colonies subcultured the day before on MH II agar.
(§4) The various Etest® strips are then deposited on the surface of the culture media. After 16 to 20 hours of incubation at 35° C., the MICS were read.
(§5) By way of indicator carbapenems according to the invention, in addition to imipenem (IM) and ertapenem (ETP), meropenem (MP) was also tested. Like the other two antibiotics, meropenem was used in the form of Etest® strips (Etest® Meropenem MP 32 from the company bioMérieux, France).
(§6) The methods used to prepare the new culture media and to carry out the antibiotic-sensitivity tests are identical to those described above.

[2] = tested on: E. cloacae 1204056 (membrane impermeability)
Method: as §1, §2, §3, §4, §5, §6

[3] = tested on: K. pneumoniae 1204036 (membrane impermeability)
Method: as §1, §2, §3, §4, §5, §6

[4] = tested on: Enterobacter aerogenes EA 5 (porin−); conditions: Klebsiella aerogenes
Method: as §1, §2, §3, §4, §5, §6

[5] = tested on: K. pneumoniae 1103183 (NDM producer)
Method: as §1, §2, §3, §4, §5, §6

[6] = tested on: E. cloacae 1008080 (IMP producer); conditions: in µg/mL
Method: as §1, §2, §3, §4, §5, §6

E. coli 1204043 = tested on: E. coli 1204043
Method: as §1, §2, §3, §4
(§7) To do this, imipenem and ertapenem were used as indicator carbapenems. Non-inhibitory concentrations of PMBN, equivalent to concentrations of one tenth ( 1/10), one eighth (⅛) and one fifth (⅕) of the MIC of PMBN, were applied.
(§8) In the light of the MICPMBN values previously identified, very predominantly much higher than 300 μg/ml, the following standard concentrations were retained and applied to the bacterial strains to be tested: 50, 100, 150, 200 and 300 μg/ml.
as §5, §6

K. pneumoniae 1204034 = tested on: K. pneumoniae 1204034
Method: as §1, §2, §3, §4, §7, §8, §5, §6

C[C@@H](O)[C@H]1C(=O)N2C(C(=O)O)=C(S[C@@H]3CN[C@H](C(=O)Nc4cccc(C(=O)O)c4)C3)[C@H](C)[C@H]12 [ETP, ertapenem]
MIC ([1]; [PMBN] 0): 1 µg/mL
MIC ([1]; [PMBN] 50 μg/ml): 0.5 µg/mL
MIC ([1]; [PMBN] 100 μg/ml): 0.38 µg/mL
MIC ([1]; [PMBN] 150 μg/ml): 0.19 µg/mL
MIC ([1]; [PMBN] 200 μg/ml): 0.125 µg/mL
MIC ([2]; [PMBN] 0, Table 4a): > 32 µg/mL
MIC ([2]; [PMBN] 100, Table 4a): 12 µg/mL
MIC ([2]; [PMBN] 200, Table 4a): 3 µg/mL
MIC ([2]; [PMBN] 300, Table 4a): 1 µg/mL
MIC ([3]; [PMBN] 0, Table 4a): > 32 µg/mL
MIC ([3]; [PMBN] 100, Table 4a): > 32 µg/mL
MIC ([3]; [PMBN] 200, Table 4a): > 32 µg/mL
MIC ([3]; [PMBN] 300, Table 4a): > 32 µg/mL
MIC ([4]; E. aerogenes EA 5 (porin−), [PMBN] 0, Table 4): 6 µg/mL
MIC ([4]; E. aerogenes EA 5 (porin−), [PMBN] 50 μg/ml): 2 µg/mL
MIC ([4]; E. aerogenes EA 5 (porin−), [PMBN] 100 μg/ml): 2 µg/mL
MIC ([4]; E. aerogenes EA 5 (porin−), [PMBN] 150 μg/ml): 1.5 µg/mL
MIC ([4]; E. aerogenes EA 5 (porin−), [PMBN] 200 μg/ml): 1 µg/mL
MIC ([4]; EA 5 (porin−), [PMBN] 0, Table 2): 32 µg/mL
MIC ([4]; EA 5 (porin−), [PMBN] MIC/5): 4 µg/mL
MIC ([4]; EA 5 (porin−), [PMBN] MIC/8): 4 µg/mL
MIC ([4]; EA 5 (porin−), [PMBN] MIC/10): 4 µg/mL
MIC ([5]; [PMBN] 0, Table 4a): > 32 µg/mL
MIC ([5]; [PMBN] 100, Table 4a): > 32 µg/mL
MIC ([5]; [PMBN] 200, Table 4a): 32 µg/mL
MIC ([5]; [PMBN] 300, Table 4a): 32 µg/mL
MIC ([6]; [PMBN] 0, Table 4a): 16
MIC ([6]; [PMBN] 100, Table 4a): 24
MIC ([6]; [PMBN] 200, Table 4a): >32
MIC ([6]; [PMBN] 300, Table 4a): 12-24
MIC (E. coli 1204043; E. coli 1204043 (membrane impermeability), [PMBN] 0, Table 4a, in µg/mL): >32
MIC (E. coli 1204043; E. coli 1204043 (membrane impermeability), [PMBN] 100, Table 4a, in µg/mL): 6
MIC (E. coli 1204043; E. coli 1204043 (membrane impermeability), [PMBN] 200, Table 4a, in µg/mL): 2-4
MIC (E. coli 1204043; E. coli 1204043 (membrane impermeability), [PMBN] 300, Table 4a, in µg/mL): 1.5
MIC (E. coli 1204043; E. coli 1204043, [PMBN] 0, Table 3, in µg/mL): 32
MIC (E. coli 1204043; E. coli 1204043, [PMBN] MIC/5, in µg/mL): 1
MIC (E. coli 1204043; E. coli 1204043, [PMBN] MIC/8, in µg/mL): 2
MIC (E. coli 1204043; E. coli 1204043, [PMBN] MIC/10, in µg/mL): 1
MIC (E. coli 1204043; Escherichia coli, 1204043, E. coli 1204043 (porin−), [PMBN] 0, Table 4, read-out: MIC): > 32 µg/mL
MIC (E. coli 1204043; Escherichia coli, 1204043, E. coli 1204043 (porin−), [PMBN] 150 μg/ml, Table 4, read-out: MIC): 0.38 µg/mL
MIC (E. coli 1204043; Escherichia coli, 1204043, E. coli 1204043 (porin−), [PMBN] 200 μg/ml, Table 4, read-out: MIC): 0.19 µg/mL
MIC (K. pneumoniae 1204034; K. pneumoniae 1204034 (membrane impermeability), [PMBN] 0, Table 4a): > 32 µg/mL
MIC (K. pneumoniae 1204034; K. pneumoniae 1204034 (membrane impermeability), [PMBN] 100, Table 4a): 12 µg/mL
MIC (K. pneumoniae 1204034; K. pneumoniae 1204034 (membrane impermeability), [PMBN] 200, Table 4a): 3 µg/mL
MIC (K. pneumoniae 1204034; K. pneumoniae 1204034 (membrane impermeability), [PMBN] 300, Table 4a): 2 µg/mL
MIC (K. pneumoniae 1204034; K. pneumoniae 1204034, [PMBN] 0, Table 3): 64 µg/mL
MIC (K. pneumoniae 1204034; K. pneumoniae 1204034, [PMBN] MIC/5): 4 µg/mL
